# Laboratory results as given in ChEMBL document CHEMBL3885861, “Open TG-GATES”.
# Species: Rattus norvegicus
# Test: Open TG-GATES - Regimen: Single
# Assay type: toxicity, organism-based, Sprague-Dawley
# Parameters: regimen Single, gender Male, age 6 weeks
# Conditions: in vivo, po, 10 mg/kg, route gavage, dose level Middle; for APTT / Bas / Eos / Fbg / Hb / Ht / Lym / MCH / MCHC / MCV / Mono / Neu / PT / Plat / RBC / Ret / WBC: tissue Blood; for KIDNEY_L / KIDNEY_R / KIDNEY_TOTAL: tissue Kidney; for LIVER: tissue Liver; for A/G / ALP / ALT / AST / BUN / CRE / Ca / Cl / DBIL / GLC / IP / K / LDH / Na / PL / RALB / TBIL / TC / TG / TP / gamma-GTP: tissue Plasma
smiles,measurement,setting,value
C[C@H]1C(=O)O[C@@H]2CCN3CC=C(COC(=O)[C@](C)(O)[C@]1(C)O)[C@H]23 [MONOCROTALINE],TERMINAL_BW,3 h,213.5 g
same,APTT,3 h,19.4 s
same,Bas,3 h,0%
same,Eos,3 h,1.4%
same,Fbg,3 h,303.6 mg/dL
same,Hb,3 h,12.9 g/dL
same,Ht,3 h,37.7%
same,Lym,3 h,77.2%
same,MCH,3 h,21.5 pg
same,MCHC,3 h,34.2%
same,MCV,3 h,62.9 fL
same,Mono,3 h,2.2%
same,Neu,3 h,19%
same,PT,3 h,16.5 s
same,Plat,3 h,122.4 x10_4/uL
same,RBC,3 h,600.4 x10_4/ul
same,Ret,3 h,8.6%
same,WBC,3 h,80.3 x10_2/uL
same,KIDNEY_L,3 h,1 g
same,KIDNEY_R,3 h,0.9 g
same,KIDNEY_TOTAL,3 h,1.9 g
same,LIVER,3 h,9.8 g
same,A/G,3 h,1.3
same,ALP,3 h,1633.4 IU/L
same,ALT,3 h,44.4 IU/L
same,AST,3 h,72.8 IU/L
same,BUN,3 h,14.2 mg/dL
same,CRE,3 h,0.1 mg/dL
same,Ca,3 h,10.8 mg/dL
same,Cl,3 h,105.6 meq/L
same,DBIL,3 h,0.002 mg/dL
same,GLC,3 h,171.8 mg/dL
same,IP,3 h,8.9 mg/dL
same,K,3 h,4.3 meq/L
same,LDH,3 h,207.6 IU/L
same,Na,3 h,142.6 meq/L
same,PL,3 h,139 mg/dL
same,RALB,3 h,3 g/dL
same,TBIL,3 h,0.012 mg/dL
same,TC,3 h,80 mg/dL
same,TG,3 h,73.2 mg/dL
same,TP,3 h,5.3 g/dL
same,gamma-GTP,3 h,1 IU/L
same,TERMINAL_BW,6 h,207.4 g
same,APTT,6 h,21.7 s
same,Bas,6 h,0%
same,Eos,6 h,1.2%
same,Fbg,6 h,303.2 mg/dL
same,Hb,6 h,13.2 g/dL
same,Ht,6 h,38.9%
same,Lym,6 h,72.4%
same,MCH,6 h,20.9 pg
same,MCHC,6 h,34%
same,MCV,6 h,61.6 fL
same,Mono,6 h,3.2%
same,Neu,6 h,22%
same,PT,6 h,16.3 s
same,Plat,6 h,121.5 x10_4/uL
same,RBC,6 h,632 x10_4/ul
same,Ret,6 h,8.4%
same,WBC,6 h,93.8 x10_2/uL
same,KIDNEY_L,6 h,1 g
same,KIDNEY_R,6 h,1 g
same,KIDNEY_TOTAL,6 h,1.9 g
same,LIVER,6 h,9.1 g
same,A/G,6 h,1.3
same,ALP,6 h,1403 IU/L
same,ALT,6 h,36.6 IU/L
same,AST,6 h,70.8 IU/L
same,BUN,6 h,11.2 mg/dL
same,CRE,6 h,0.1 mg/dL
same,Ca,6 h,10.5 mg/dL
same,Cl,6 h,107 meq/L
same,DBIL,6 h,0.004 mg/dL
same,GLC,6 h,179.6 mg/dL
same,IP,6 h,9.5 mg/dL
same,K,6 h,4.3 meq/L
same,LDH,6 h,222.6 IU/L
same,Na,6 h,141.8 meq/L
same,PL,6 h,129 mg/dL
same,RALB,6 h,3 g/dL
same,TBIL,6 h,0.016 mg/dL
same,TC,6 h,72.2 mg/dL
same,TG,6 h,53.2 mg/dL
same,TP,6 h,5.3 g/dL
same,gamma-GTP,6 h,1 IU/L
same,TERMINAL_BW,9 h,203.7 g
same,APTT,9 h,20 s
same,Bas,9 h,0%
same,Eos,9 h,1%
same,Fbg,9 h,294.4 mg/dL
same,Hb,9 h,13.1 g/dL
same,Ht,9 h,38.6%
same,Lym,9 h,75.4%
same,MCH,9 h,21 pg
same,MCHC,9 h,34.1%
same,MCV,9 h,61.7 fL
same,Mono,9 h,2.8%
same,Neu,9 h,20.2%
same,PT,9 h,16.5 s
same,Plat,9 h,119.6 x10_4/uL
same,RBC,9 h,626 x10_4/ul
same,Ret,9 h,8.8%
same,WBC,9 h,71.7 x10_2/uL
same,KIDNEY_L,9 h,1 g
same,KIDNEY_R,9 h,1 g
same,KIDNEY_TOTAL,9 h,2 g
same,LIVER,9 h,9 g
same,A/G,9 h,1.3
same,ALP,9 h,1365.4 IU/L
same,ALT,9 h,33.6 IU/L
same,AST,9 h,62.8 IU/L
same,BUN,9 h,11.4 mg/dL
same,CRE,9 h,0.1 mg/dL
same,Ca,9 h,10.6 mg/dL
same,Cl,9 h,106.2 meq/L
same,DBIL,9 h,0.006 mg/dL
same,GLC,9 h,180.2 mg/dL
same,IP,9 h,9.7 mg/dL
same,K,9 h,4.2 meq/L
same,LDH,9 h,144 IU/L
same,Na,9 h,142.2 meq/L
same,PL,9 h,132.8 mg/dL
same,RALB,9 h,3.1 g/dL
same,TBIL,9 h,0.024 mg/dL
same,TC,9 h,73.2 mg/dL
same,TG,9 h,54.8 mg/dL
same,TP,9 h,5.4 g/dL
same,gamma-GTP,9 h,1.2 IU/L
same,TERMINAL_BW,24 h,217 g
same,APTT,24 h,21.3 s
same,Bas,24 h,0%
same,Eos,24 h,0.8%
same,Fbg,24 h,309.8 mg/dL
same,Hb,24 h,13.5 g/dL
same,Ht,24 h,39.6%
same,Lym,24 h,80.8%
same,MCH,24 h,21.1 pg
same,MCHC,24 h,34%
same,MCV,24 h,61.9 fL
same,Mono,24 h,2.8%
same,Neu,24 h,15.2%
same,PT,24 h,16.2 s
same,Plat,24 h,117.4 x10_4/uL
same,RBC,24 h,639.8 x10_4/ul
same,Ret,24 h,7.1%
same,WBC,24 h,75.2 x10_2/uL
same,KIDNEY_L,24 h,1 g
same,KIDNEY_R,24 h,1 g
same,KIDNEY_TOTAL,24 h,2 g
same,LIVER,24 h,10 g
same,A/G,24 h,1.3
same,ALP,24 h,1872.8 IU/L
same,ALT,24 h,45.2 IU/L
same,AST,24 h,75.4 IU/L
same,BUN,24 h,17 mg/dL
same,CRE,24 h,0.1 mg/dL
same,Ca,24 h,10.4 mg/dL
same,Cl,24 h,106.6 meq/L
same,DBIL,24 h,0.002 mg/dL
same,GLC,24 h,180.8 mg/dL
same,IP,24 h,6.9 mg/dL
same,K,24 h,4.3 meq/L
same,LDH,24 h,235.8 IU/L
same,Na,24 h,142.2 meq/L
same,PL,24 h,153 mg/dL
same,RALB,24 h,3.1 g/dL
same,TBIL,24 h,0.006 mg/dL
same,TC,24 h,79.4 mg/dL
same,TG,24 h,114.6 mg/dL
same,TP,24 h,5.5 g/dL
same,gamma-GTP,24 h,0.8 IU/L
